Structures can show the parent of a compound that is named as a salt.
How the values were obtained:
[1] = test system: ADJ/PC6A plasma cell tumor; conditions: in comparison with cis-dichlorodiammineplatinum (II); Connors et al 1972; cited from earlier work
Sarcoma 180 = conditions: Cleare et al 1973; cited from earlier work
L1210 leukemia [2] = conditions: Gale et al 1974; cited from earlier work
L1210 leukemia [3] = test: combination chemotherapy against L1210 leukemia in mice (10^6 L1210 cells ip, schedule A); format: in vivo; conditions: Yoshi-864 and cyclophosphamide 75 mg/kg each; for % ILS: dichloro complex 2.5 mg/kg; for 60-Day Survivors: out of 10, dichloro complex 2.5 mg/kg
Description: The significance of this test system in evaluating potential antineoplastic agents and the test protocol therefor, are described in detail by Geran et al, "Protocols for Screening Chemical Agents and Natural Products Against Animal Tumors and Other Biological Systems" (Third Edition), Cancer Chemotherapy Reports, Part 3, Volume 3, No. 2, Pages 1-103, September 1972. Briefly, the test procedure involves implanting L1210 leukemia cells into mice by intraperitoneal (i.p.) injection, beginning i.p. treatment with the test drug 24 hours after implant, and determining the antineoplastic activity of the test drug at optimum dose levels and schedules of administration as the percent increase in life span (%ILS) of the treated mice over the untreated control mice.
In this set of tests, the mice received by ip injection 10^6 L1210 leukemia cells, which produces a somewhat more advanced stage of the disease after 24 hours than is obtained upon using 10^5 cells as described in the previous set of tests. The mice were then divided into groups of ten, including a control group, and all mice within the same group were given the same treatment. Treatment was administered ip employing the A schedule of administration. […] The treatments tested were each of the three treating agents by themselves and the dichloro complex in combination with each of the other two treating agents. The resulting %ILS values and the number of mice (out of the group of 10) which survived sixty days following implant, are set forth in Table III.

L1210 leukemia [4] = test: antineoplastic activity against L1210 leukemia in mice, individual treatment (10^5 L1210 cells ip); format: in vivo; conditions: for % ILS: 10^5 cells; for Dose/Injection range found safe and effective for providing %ILS of at least 25%, Schedule B: ip injections on days 1, 5 and 9 after implant; for Dose/Injection range found safe and effective for providing %ILS of at least 25%, Schedule C: ip injections on each of days 1-9 after implant; for Dose/Injection range found safe and effective for providing %ILS of at least 25%, Schedule A: single ip injection on day 1 after implant
Experimental: Schedule A consisted of a single injection administered ip on the first day following implant of the L1210 leukemia cells. (i.e., 24 hours after implant). Schedule B consisted of a three-injection regimen, with one injection being administered ip on each of the first, fifth and ninth days following implant. Schedule C consisted of a nine-injection regimen, with one injection being administered ip on each of the first through ninth days following implant.
In this set of tests, the mice received 10^5 L1210 leukemia cells by ip injection, and were divided into groups of 10, including a control group.

L1210 leukemia [5] = test: combination chemotherapy against L1210 leukemia in mice (10^6 L1210 cells ip, schedule A); format: in vivo; conditions: Yoshi-864 and cyclophosphamide 75 mg/kg each; for 60-day Survivors: out of 10, sulfato complex 4 mg/kg
L1210 leukemia [6] = test: antineoplastic activity of hydroxonitrato complex against L1210 leukemia in mice (10^6 L1210 cells ip); format: in vivo; conditions: Schedule A
Experimental: The mice received by ip injection 10^6 L1210 leukemia cells, which produces a somewhat more advance stage of the disease after 24 hours than is obtained upon using 10^5 cells as described previously. The mice were then divided into groups of six, including a control group. […] The highest %ILS value obtained was 144 at a dose level of 10 mg/kg.

cancer = conditions: in vivo; cited from earlier work
[7] = hydroxymalonato complex 30 mg/kg
[8] = out of 10, dinitrato complex 3 mg/kg
[9] = out of 10, hydroxymalonato complex 30 mg/kg
[10] = out of 10, malonato complex 15 mg/kg
[11] = highest %ILS regardless of schedule or dose level

| Compound | 60-Day Survivors (L1210 leukemia [3]) | % ILS (L1210 leukemia [5]; dinitrato complex 3 mg/kg) | % ILS (L1210 leukemia [5]; [7]) | % ILS (L1210 leukemia [5]; malonato complex 15 mg/kg) | 60-Day Survivors (L1210 leukemia [5]; [8]) | 60-Day Survivors (L1210 leukemia [5]; [9]) | 60-Day Survivors (L1210 leukemia [5]; [10]) | 60-day Survivors (L1210 leukemia [5]) | % ILS (L1210 leukemia [5]; sulfato complex 4 mg/kg) | level of antineoplastic activity greater than that achieved with the dichloro complex (L1210 leukemia [4]; [11]) | Dose/Injection range found safe and effective for providing %ILS of at least 25%, Schedule B (L1210 leukemia [4]) | Dose/Injection range found safe and effective for providing %ILS of at least 25%, Schedule C (L1210 leukemia [4]) | Dose/Injection range found safe and effective for providing %ILS of at least 25%, Schedule A (L1210 leukemia [4]) | other results |
| --- | --- | --- | --- | --- | --- | --- | --- | --- | --- | --- | --- | --- | --- | --- |
| NC1CCCCC1N.[Cl][Pt][Cl] (centres unmarked) [Dichloro complex, dichloro (1,2-diaminocyclohexane) platinum (II)] | 0 mice | – | – | – | – | – | – | – | – | – | – | – | – | ID50 (in words) [1]: quite similar to those of cis-dichlorodiammineplatinum (II); LD50 (in words) [1]: quite similar to those of cis-dichlorodiammineplatinum (II); antitumor activity against Sarcoma 180 (in words) (Sarcoma 180): only marginal antitumor activity; combination with cyclophosphamide (in words) (L1210 leukemia [2]): combined synergistically; effectiveness against L1210 leukemia (in words) (L1210 leukemia [2]): highly effective; increase in mean survival time in comparison with cis-dichlorodiammineplatinum (II) (L1210 leukemia [2]): up to 54%; % ILS (L1210 leukemia [3]): 73%; % ILS (L1210 leukemia [4]; Schedule A, 6.25 mg/kg/injection ip): 114%; % ILS (L1210 leukemia [4]; Schedule B, 8.0 mg/kg/injection ip): 113%; % ILS (L1210 leukemia [4]; Schedule C, 2.0 mg/kg/injection ip): 153% |
| CS(=O)(=O)OCCCNCCCOS(C)(=O)=O [Yoshi-864, 1-propanol, 3,3'-iminodi-,dimethanesulfonate (ester) hydrochloride] | 0 mice | 116% | 117% | 112% | 0 mice | 0 mice | 0 mice | 0 mice | 95% | – | – | – | – | % ILS (L1210 leukemia [3]): 81% |
| hydroxymalonato (1,2-diaminocyclohexane) platinum (II) [Hydroxymalonato complex] | – | – | 118% | – | – | 0 mice | – | – | – | 111% | 5 to 37.5 mg/kg | 1 to 15 mg/kg | 2 to 150 mg/kg | water solubility: 1500 µg/mL; % ILS (L1210 leukemia [4]; Schedule A, 75.0 mg/kg/injection ip): 97%; % ILS (L1210 leukemia [4]; Schedule B, 37.5 mg/kg/injection ip): 162%; level of antineoplastic activity greater than that achieved with the malonato complex (L1210 leukemia [4]; [11]): 19%; potency against L1210 leukemia relative to malonato complex (in words) (L1210 leukemia [4]; in comparison with malonato complex): even greater potency |
| NC1CCCCC1N.O=S(=O)([O-])[O-].[Pt+2] (centres unmarked) [Sulfato complex, sulfato (1,2-diaminocyclohexane) platinum (II)] | – | – | – | – | – | – | – | 0 mice | 119% | 86% | 0.2 to 5 mg/kg | 0.1 to 1.2 mg/kg | 0.5 to 10 mg/kg | % ILS (L1210 leukemia [4]; Schedule A, 5.0 mg/kg/injection ip): 116%; % ILS (L1210 leukemia [4]; Schedule B, 3.33 mg/kg/injection ip): 285%; % ILS (L1210 leukemia [4]; Schedule C, 0.6 mg/kg/injection ip): 239% |
| NC1CCCCC1N.O=[N+]([O-])[O-].[OH-].[Pt+2] (centres unmarked) [Hydroxonitrato complex, hydroxonitrato (1,2-diaminocyclohexane) platinum (II)] | – | – | – | – | – | – | – | – | – | – | 1 to 5 mg/kg | 0.3 to 1.25 mg/kg | 2.5 to 15 mg/kg | % ILS (L1210 leukemia [6]; 10 mg/kg ip, 10^6 cells): 144%; greater %ILS value than dichloro complex (L1210 leukemia [6]; 10^6 cells vs dichloro complex at 10^5 cells): 26% |
| NC1CCCCC1N.O=[N+]([O-])[O-].O=[N+]([O-])[O-].[Pt+2] (centres unmarked) [Dinitrato complex, dinitrato (1,2-diaminocyclohexane) platinum (II)] | – | 110% | – | – | 0 mice | – | – | – | – | 83% | 0.25 to 4 mg/kg | 0.05 to 2 mg/kg | 0.5 to 8 mg/kg | % ILS (L1210 leukemia [4]; Schedule A, 4.0 mg/kg/injection ip): 113%; % ILS (L1210 leukemia [4]; Schedule B, 4.0 mg/kg/injection ip): 247%; % ILS (L1210 leukemia [4]; Schedule C, 0.5 mg/kg/injection ip): 281% |
| N.N.[Cl][Pt][Cl] [cis-dichlorodiammineplatinum (II)] | – | – | – | – | – | – | – | – | – | – | – | – | – | therapeutic index (in words) (cancer): rather low therapeutic index |
| NC1CCCCC1N.O=C([O-])CC(=O)[O-].[Pt+2] (centres unmarked) [Malonato complex, malonato (1,2-diaminocyclohexane) platinum (II)] | – | – | – | 80% | – | – | 0 mice | – | – | 77% | 10 to 40 mg/kg | 5 to 20 mg/kg | 2.5 to 160 mg/kg | antitumor activity against Sarcoma 180 (in words) (Sarcoma 180): only marginal antitumor activity; % ILS (L1210 leukemia [4]; Schedule A, 2.5 mg/kg/injection ip): 258%; % ILS (L1210 leukemia [4]; Schedule A, 40.0 mg/kg/injection ip): 271%; % ILS (L1210 leukemia [4]; Schedule B, 40.0 mg/kg/injection ip): 157%; % ILS (L1210 leukemia [4]; Schedule C, 10.0 mg/kg/injection ip): 219% |
| O=P1(N(CCCl)CCCl)NCCCO1 (centres unmarked) [Cyclophosphamide, cyclophosphamide] | 0 mice | 105% | 107% | 118% | 0 mice | 0 mice | 0 mice | 0 mice | 97% | – | – | – | – | % ILS (L1210 leukemia [5]; dichloro complex 2.5 mg/kg): 79% |

Reference: US4175133A, “1,2-Diaminocyclohexane platinum (II) complexes having antineoplastic activity against L1210 leukemia” (priority 1977, dated 1979)
